These are literature values, as cited in US12102684B2, “Methods of making and using polyphenols complexed with a protein, peptide, amino acid, polysaccharide, disaccharide, or monosaccharide” (priority 2016, dated 2024).

The conditions of series [1]: previous studies.

For `Oc1ccc(/C=C/c2cc(O)cc(O)c2)cc1` [Resveratrol, 3,5,4′-trihydroxy-trans-stilbene], the solubility in water was 0.03 grams/liter. Besides, where the note is “organic solvents (methanol, acetone, DMSO, etc.)”, the “solubility in organic solvents” value is on record as 16-50 grams/liter.

As to `COc1cc([C@@H]2Oc3c(O)cc([C@H]4Oc5cc(O)cc(O)c5C(=O)[C@@H]4O)cc3[C@H]2CO)ccc1O` [Silychristin], the “solubility in water” value was “water insoluble”.

As to `COc1cc(/C=C/C(=O)CC(=O)/C=C/c2ccc(O)c(OC)c2)ccc1O` [curcumin, (1E,6E)-1,7-bis(4hydroxy-3-methoxyphenyl)hepta-1,6-diene-3,5-dione], the “solubility in water” value is “very poor”. For the same compound, the oral clearance in series [1] is 1808 mL/min/kg.
